The text below walks through data of PubChem BioAssay AID588615 (The Scripps Research Institute Molecular Screening Center, 2011).

The source made the active and inactive calls.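 How the source made its calls: active means p38 protein level shifted by 30% or more versus DMSO-treated cells, either down or up; inactive means shift in p38 protein level below 30%.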

For experiment [1], the target named is Mitogen-activated protein kinase 14 (Homo sapiens) (UniProt Q16539). Briefly: p38 MAPK abundance shift in treated cells – DLD1 cells, chemiluminescent western blot, powder samples, counter-screen for KLF5 inhibitor project, late-stage follow-up (AID 588615). Particulars: DLD-1 cells, p38 western blot, 24 h; at 10 µM; stronger effect = higher value. Background: In western blotting, separated proteins are transferred to a membrane and probed.
Mitogen-activated protein kinase 14 (Homo sapiens), sequence (Q16539 whole entry, looked up): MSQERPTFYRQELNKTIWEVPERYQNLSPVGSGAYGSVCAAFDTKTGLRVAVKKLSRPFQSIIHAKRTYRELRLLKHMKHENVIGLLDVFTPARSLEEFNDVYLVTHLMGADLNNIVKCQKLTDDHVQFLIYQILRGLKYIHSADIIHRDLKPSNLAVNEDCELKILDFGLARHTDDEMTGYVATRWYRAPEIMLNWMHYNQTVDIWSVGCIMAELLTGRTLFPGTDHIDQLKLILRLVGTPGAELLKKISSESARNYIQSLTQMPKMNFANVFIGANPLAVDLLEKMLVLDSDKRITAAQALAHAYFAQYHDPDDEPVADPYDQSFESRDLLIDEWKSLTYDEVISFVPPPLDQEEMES

Experiment [2] deals with DLD-1 cells, p38 western blot, 24 h. Described as above. The note with it: measured here: p38 band fold change vs DMSO; at 10 µM.

For the compound `CN(C(=O)COC(=O)/C=C/c1cccc([N+](=O)[O-])c1)C1CCS(=O)(=O)C1` (centres undefined), in experiment [1], the inhibition is 19.9% (inactive). Turning to `CN(C(=O)CNC(=O)/C=C/c1cccc(Cl)c1)C1CCS(=O)(=O)CC1`, in experiment [1], the inhibition was 12.3% (inactive). As to `CN(C(=O)CNC(=O)/C=C/c1cccc(Cl)c1)C1CCS(=O)(=O)C1` (centres undefined), the fold change in experiment [2] came out at 1.05. The inhibition in experiment [1] is -5.46% (inactive).

One may read the inhibition as the relative decrease from the control value, in per cent.
